Source: patent US6362208B1, “Anilide compounds and drugs containing the same” (Kowa Company, Ltd., priority 1997, dated 2002)

Assays:
[1] = tested on: ACAT in HepG2 cells; assay: ACAT inhibitory action in HepG2 cells, cholesterol ester formation; format: cell-based; conditions: 10 μg/ml 25-OH cholesterol, 18-hr culturing, cholesterol ester per protein, read-out: IC50 (μM) of HepG2-derived enzyme
Method: (§1) J774 cells or HepG2 cells were inoculated on a 24-well plate; J774 cells and HepG2 cells were cultured in DMEM and MEM culture broths (each of the broths containing 10% calf fetus serum), respectively, in a 5% CO2 incubator at 37° C. for 24 hours. […] After discarding the culture media, the resulting cultures were rinsed twice with PBS and extracted with 1.5 ml of hexane:isopropanol (3:2), for concentration and drying. The extracts were dissolved in isopropanol containing 0.2 ml of 10% Triton X-100, to assay total cholesterol (TC) and free cholesterol (FC) by using Cholesterol E Test WAKO (manufactured by Wako Pure Chemicals, Co.) and Free Cholesterol E Test Wako (manufactured by Wako Pure Chemicals, Co.). […] Based on the difference between TC and FC, cholesterol ester was calculated per protein, to determine IC50, compared with the calculated control IC50 value.

[2] = target: T1, ACAT in J774 cells (Mus musculus, UniProt Q61263); assay: ACAT inhibitory action (anti-foaming action) in J774 cells, cholesterol ester formation; format: cell-based; conditions: for IC50: J774 cells, 10 μg/ml 25-OH cholesterol, 18-hr culturing, cholesterol ester per protein, read-out: IC50 (μM) of J774-derived enzyme; for IC50 (HepG2)/IC50 (J774): ratio HepG2 / J774
T1 construct: J774 cells or HepG2 cells were inoculated on a 24-well plate; endogenous in cells; host or cells: J774 cells
T1 sequence (Q61263 1-540): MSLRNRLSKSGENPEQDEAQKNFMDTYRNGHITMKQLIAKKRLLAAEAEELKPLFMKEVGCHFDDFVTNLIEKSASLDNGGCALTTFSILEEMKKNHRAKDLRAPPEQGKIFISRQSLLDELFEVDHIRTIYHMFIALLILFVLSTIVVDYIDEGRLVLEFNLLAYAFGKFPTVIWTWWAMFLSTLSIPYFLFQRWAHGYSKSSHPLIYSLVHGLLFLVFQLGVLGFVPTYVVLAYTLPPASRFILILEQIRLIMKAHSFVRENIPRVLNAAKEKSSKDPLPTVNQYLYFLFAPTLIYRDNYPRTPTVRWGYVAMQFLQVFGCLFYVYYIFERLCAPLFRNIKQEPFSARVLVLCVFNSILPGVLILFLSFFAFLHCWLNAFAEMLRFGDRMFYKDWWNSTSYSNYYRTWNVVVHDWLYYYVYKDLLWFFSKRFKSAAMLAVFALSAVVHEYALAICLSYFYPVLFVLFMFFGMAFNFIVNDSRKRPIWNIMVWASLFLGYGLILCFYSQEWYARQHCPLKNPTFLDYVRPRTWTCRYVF
Method: as §1

[3] = target: ACAT, vascular wall-derived enzyme (Oryctolagus cuniculus, UniProt G1SUQ0); assay: ACAT inhibitory action, vascular wall-derived enzyme (microsome from thoracic aorta of cholesterol-fed rabbit); format: biochemical; conditions: 14C-Oleoyl-CoA, 37° C.
Method: (§2) In a conventional manner, microsome was prepared from the thoracic aorta of a rabbit fed with a 1% cholesterol diet for 8 weeks, which was then suspended in 0.15 M phosphate buffer, pH 7.4, to prepare an enzyme solution. An enzyme solution was prepared from a rabbit small intestine on normal diet, which was defined as an enzyme solution derived from small intestine.
(§3) 10 μl of an enzyme solution was added to the resulting solution for reaction at 37° C. for […] (small intestine-derived enzyme solution was subjected to reaction for 3 minutes). Subsequently, the reaction was terminated by adding 3 ml of chloroform/methanol (2/1) and 0.5 ml of 0.04 N hydrochloric acid to the reaction solution, to extract lipid. The solvent layer was concentrated and dried, which was then dissolved in hexane and spotted on a TLC plate (manufactured by Merck, Co.). The plate was eluted with hexane:ether:acetic acid (75:25:1). The radioactivity of the resulting cholesterol ester fraction was assayed by BAS 2000 (manufactured by Fuji Photo Film, Co., Ltd.). Compared with the radioactivity of a control prepared by single addition of DMSO, IC50 was determined.

[4] = target: T2, ACAT, small intestine-derived enzyme (Oryctolagus cuniculus, UniProt G1SFD9); assay: ACAT inhibitory action, small intestine-derived enzyme; format: biochemical; conditions: rabbit small intestine enzyme solution, 14C-Oleoyl-CoA, 37° C., 3 minutes
T2 sequence (G1SFD9 1-524): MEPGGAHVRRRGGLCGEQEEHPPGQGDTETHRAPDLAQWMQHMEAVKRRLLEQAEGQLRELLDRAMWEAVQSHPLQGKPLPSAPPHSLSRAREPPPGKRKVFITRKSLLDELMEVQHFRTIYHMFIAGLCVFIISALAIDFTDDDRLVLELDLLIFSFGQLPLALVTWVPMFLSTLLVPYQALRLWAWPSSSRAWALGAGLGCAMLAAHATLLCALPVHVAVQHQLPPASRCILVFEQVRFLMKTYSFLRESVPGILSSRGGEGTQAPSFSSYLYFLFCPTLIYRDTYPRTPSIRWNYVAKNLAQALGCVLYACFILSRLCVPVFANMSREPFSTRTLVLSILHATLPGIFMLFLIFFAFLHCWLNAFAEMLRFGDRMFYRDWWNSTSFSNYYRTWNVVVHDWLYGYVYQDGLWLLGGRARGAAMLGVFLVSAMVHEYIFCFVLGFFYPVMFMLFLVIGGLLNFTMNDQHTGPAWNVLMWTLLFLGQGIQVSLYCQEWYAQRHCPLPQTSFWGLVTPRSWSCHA
Method: as §2, §3

Chain of ACAT, vascular wall-derived enzyme (G1SUQ0 entry or part of it): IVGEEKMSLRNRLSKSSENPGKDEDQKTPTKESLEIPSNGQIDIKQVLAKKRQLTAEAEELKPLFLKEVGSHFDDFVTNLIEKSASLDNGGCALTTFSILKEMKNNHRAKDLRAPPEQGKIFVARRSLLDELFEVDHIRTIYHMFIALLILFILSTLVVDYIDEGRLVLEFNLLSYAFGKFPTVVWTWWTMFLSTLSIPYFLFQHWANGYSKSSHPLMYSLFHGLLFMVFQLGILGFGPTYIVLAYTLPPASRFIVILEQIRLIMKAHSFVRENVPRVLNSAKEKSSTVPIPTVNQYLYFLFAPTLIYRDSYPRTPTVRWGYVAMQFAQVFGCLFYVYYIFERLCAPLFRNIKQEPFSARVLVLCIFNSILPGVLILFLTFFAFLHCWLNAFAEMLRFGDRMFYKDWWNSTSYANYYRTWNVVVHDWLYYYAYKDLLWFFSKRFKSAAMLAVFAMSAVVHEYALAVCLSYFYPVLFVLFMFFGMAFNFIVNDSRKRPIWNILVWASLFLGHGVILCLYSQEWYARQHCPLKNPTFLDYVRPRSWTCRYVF

| SMILES | IC50 [1] | melting point | IC50 [2] | IC50 (HepG2)/IC50 (J774) [2] | IC50 [3] | IC50 [4] |
| --- | --- | --- | --- | --- | --- | --- |
| CC(C)c1cccc(C(C)C)c1NC(=O)CCCCCCCCSc1nc2cccc(C(F)(F)F)c2o1 [Example 75, 9-(7-trifluoromethylbenzoxazol-2-ylthio)-N-(2,6-diisopropylphenyl)nonanamide] | 0.089 µM | 82 to 84 °C | 0.012 µM | 7.4 | – | – |
| CCCCCCCN(CCCCCSc1nc(-c2ccccc2)c(-c2ccccc2)[nH]1)c1nc2ccccc2o1 [Control 4, reference compound] | 0.75 µM | – | 0.12 µM | 6.3 | 0.026 µM | 0.037 µM |
| CC(C)c1cccc(C(C)C)c1NC(=O)CCCCCSc1nc2cc(OCc3ccccc3)ccc2o1 [Example 29, 6-(5-benzyloxybenzoxazol-2-ylthio)-N-(2,6-diisopropylphenyl)hexanamide] | 1.9 µM | 102 to 104 °C | 0.26 µM | 7.3 | – | – |
| CCCCCCCCCN(CC(C)(C)C)C(=O)N[C@H]1CCCC[C@@H]1OC(=O)CCNC(=O)C1OC(C)(C)OCC1(C)C (stereo partly drawn) [Control 3, N-(2,2,5,5-tetramethyl-1,3-dioxan-4-ylcarbonyl)-β-alanine 2(S)-[N′-(2,2-dimethylpropyl)-N′-nonylureido]-1(S)-cyclohexyl ester, reference compound] | – | – | 0.32 µM | 4.3 | – | 0.056 µM |
